Experimental data reported in patent publication US8507219B2, “Method of treating inflammation with statins” (MUSC Foundation for Research Development, priority 1997, dated 2013).
Entries after “also recorded” stand apart in the source; their conditions may differ.

Assays:
[1] = test system: IL-1β production in rat primary microglia; test: LPS-induced IL-1β production (ELISA) in rat primary microglia; type: cell-based
Protocol: (§1) Determination of TNF-α and IL-1β in culture supernatants Cells were stimulated with LPS in serum-free media for 24 h in the presence or absence of forskolin or rolipram, and concentrations of TNF-α and IL-1β were measured in culture supernatants by using high-sensitivity enzyme-linked immunosorbent assay (R&D Systems, USA) according to the manufacturer's instructions.

[2] = test system: TNF-α production in rat primary microglia; test: LPS-induced TNF-α production (ELISA) in rat primary microglia; type: cell-based
Protocol: as §1

[3] = test system: cultured skin fibroblasts of X-ALD; test: VLCFA ratios (C26:0/C22:0, C24:0/C22:0) in X-ALD skin fibroblasts; type: cell-based, human; conditions: about 15 days of treatment
iNOS = test: Expression of iNOS protein (immunoblot) and mRNA (Northern) in rat primary astrocytes; type: cell-based; conditions: 10 μM forskolin or 0.2 μM H-89 15 min before cytokines / LPS
Protocol: (§2) Immunoblot analysis for iNOS Following 24 h incubation in the presence or absence of stimuli by different cytokines or LPS, macrophages were scraped off, washed with Hank's buffer, and homogenized in 50 mM Tris-HCl (pH 7.4) containing protease inhibitors (1 nM PMSF, 5 μg/ml aprotinin, 5 μg/ml pepstatin A, and 5 μg/ml leupeptin). After electrophoresis the proteins were transferred onto a nitrocellulose membrane, and the iNOS band was visualized by immunoblotting with antibodies against mouse macrophage iNOS and [^125I]-labeled protein A (Singh et al., 1988).
RNA isolation, Northern blot analysis, and reverse-transcriptase coupled polymerase chain reaction (RT-PCR) Stimulated peritoneal macrophages were taken out from culture dishes directly by adding Ultraspec-II RNA reagent (Biotecx Laboratories Inc.) and total RNA was isolated according to the manufacturer's protocol. For northern blot analyses, 20 μg of total RNA was electrophoresed on 1.2% denaturing formaldehyde-agarose gels, electrotransferred to Hybond-Nylon Membrane (Amersham) and hybridized at 68° C. with ^32P-labeled cDNA probe using Express Hyb hybridization solution (Clontech) as described by the manufacturer. […]; After hybridization filters were washed two to three times in solution I (2×SSC, 0.05% SDS) for 1 h at room temperature followed by solution II (0.1×SSC, 0.1% SDS) at 50° C. for another hour. The membranes were then dried and exposed to X-ray film (Kodak). The same filters were stripped and rehybridized with probes for GAPDH. The relative mRNA content for iNOS was measured after scanning the bands with a Biorad (Model GS-670) imaging densitometer.
as §2, with “of” for “of stimuli by”, “stimuli, cells” for “cytokines or LPS, macrophages”, “inhibitors.” for “inhibitors (1 nM PMSF, 5 μg/ml aprotinin, 5 μg/ml pepstatin A, and 5 μg/ml leupeptin).”, “A.” for “A (Singh et al., 1988).”
RNA isolation and Northern blot analysis Cells were taken out from culture dishes directly by adding Ultraspec-II RNA reagent (Biotecx Laboratories Inc.) and total RNA was isolated according to the manufacturer's protocol. For Northern blot analyses, 20 μg of total RNA was electrophoresed on 1.2% denaturing formaldehyde-agarose gels, electrotransferred to Hybond-Nylon Membrane (Amersham) and hybridized at 68° C. with ^32P-labeled cDNA probe using Express Hyb hybridization solution (Clontech) as described by the manufacturer. […]; After hybridization filters were washed two or three times in solution I (2×SSC, 0.05% SDS) for one hour at room temperature followed by solution II (0.1×SSC, 0.1% SDS) at 50° C. for another hour. The membranes were then dried and exposed with X-ray films (Kodak). The same filters were stripped and rehybridized with probes for GAPDH. The relative mRNA content for iNOS was measured after scanning the bands with a Biorad (Model GS-670) imaging densitometer.
as §2, with “After a” for “Following”, “of” for “of stimuli by”, “stimuli, cells” for “cytokines or LPS, macrophages”, “mM” for “nM”, “A.” for “A (Singh et al., 1988).”
RNA isolation and Northern blot analysis Cells were taken out from culture dishes directly by adding Ultraspec-II RNA reagent (Biotecx Laboratories Inc., Houston, Tex.), and total RNA was isolated according to the manufacturer's protocol. […]

[4] = test system: control human skin fibroblasts; test: β-oxidation of lignoceric acid in control human skin fibroblasts; type: cell-based; conditions: 72 h
[5] = test system: NOS activity in rat resident macrophages; test: NOS activity (L-citrulline from L-arginine) in homogenates of treated rat resident macrophages; type: cell-based; conditions: LPS 1.0 μg/ml, 24 h
Protocol: NOS activity was measured directly by production of L-[2,3,4,5-^3H]citrulline from L-[2,3,4,5-^3H] arginine (Feinstein et al., 1994a). […] Assays were carried out for 30 to 40 min and the production of L-[2,3,4,5-^3H] citrulline was linear. The reactions were stopped by addition of 800 μl of ice-cold 20 mM HEPES (pH 5.5) followed by addition of 2 ml of Dowex-50W equilibrated in the same buffer. The samples were then centrifuged and the concentration of L-[^3H]citrulline was determined in the supernatant by liquid scintillation counting.

[6] = test system: TNF-α production in rat resident macrophages; test: LPS-/IFN-γ-induced TNF-α production (ELISA) in rat macrophages; type: cell-based
Protocol: Resident macrophages cultured in serum-free RPMI 1640 medium received 20 mM NAC or 100 μM PDTC 2 h before the addition of stimuli. When stimuli were used separately their concentrations were: LPS, 1.0 μg/ml; IFN-γ, 200 U/ml, and when they were used together, their concentrations were: LPS, 0.2 μg/ml; IFN-γ, 50 U/ml. Supernatants were collected 24 h after the addition of stimuli to measure TNF-α concentration using ELISA as described.

[7] = test system: ceramide production in rat primary astrocytes; test: Degradation of sphingomyelin to ceramide (DAG kinase assay, HPTLC) in rat primary astrocytes; type: cell-based; conditions: 10 mM NAC or 100 μM PDTC 1 h before TNF-α or IL-1β (50 ng/ml), diamide 0.5 mM or aminotriazole 5 mM
Protocol: Lipid extraction Approximately 1.0×10^6 cells were exposed to different cytokines in the presence or absence of antioxidants for different periods and lipids were extracted according to the methods described by Welsh (1996).
Quantification of sphingomyelin by HPTLC and densitometry Sphingomyelin was separated from total lipid extracts by HPTLC (LPK-plates from Whatman Labsales, USA) as described (Ganser et al., 1988) for phospholipids with the modification, that the plate was overrun for 30 min during its development and was dried overnight in vacuum desicator. Sphingomyelin was quantitated by densitometric scanning using Imaging Densitometer (Model GS-670; Bio-Rad, USA) and software provided with the instrument by the manufacturer.
Quantification of ceramide levels by diacylglycerol kinase assay Ceramide content was quantified essentially according to Priess et al. using diacylglycerol (DAG) kinase and [γ-^32P]ATP (Priess et al., 1986). Briefly, dried lipids were solubilized in 20 μl of an octyl β-D-glucoside/cardiolipin solution (7.5% octyl β-D-glucoside, 5 mM cardiolipin in 1 mM DTPA) by sonication in a sonicator bath. […] The labeled ceramide 1-phosphate was resolved with a solvent system consisting of methyl acetate: n-propanol:chloroform:methanol:0.25% KCl in water:acetic-acid (100:100:100:40:36:2). A standard sample of ceramide was phosphorylated under identical conditions and developed in parallel. […] Quantification of ceramide 1-phosphate was carried out by autoradiography and densitometric scanning using Imaging Densitometer (Model GS-670; Bio-Rad, USA). Values are expressed either as arbitrary units (absorbance) or as percent change.
Lipid Extraction Approximately 1.0×10^6 cells were exposed to different cytokines in the presence or absence of antioxidants for different periods, and lipids were extracted according to the methods described by Welsh (1996).
Quantification of Sphingomyelin by High Performance TLC and Densitometry Sphingomyelin was separated from total lipid extracts by high performance TLC (LHPK plates from Whatman) as described by Ganser et al. (1988) for phospholipids with the following modification: the plate was overrun for 30 min during its development and was dried overnight in vacuum desiccator. Sphingomyelin was quantitated by densitometric scanning using Imaging Densitometer (model GS-670; Bio-Rad), and software was provided with the instrument by the manufacturer.
Quantification of Ceramide Levels by Diacylglycerol Kinase Assay Ceramide content was quantified essentially according to Priess et al. (1986) using diacylglycerol (DAG) kinase and [γ-^32P]ATP. Briefly, dried lipids were solubilized in 20 μl of an octyl β-D-glucoside/cardiolipin solution (7.5% octyl β-D-glucoside, 5 mM cardiolipin in 1 mM DTPA) by sonication in a sonicator bath. […] The labeled ceramide-1-phosphate was resolved with a solvent system consisting of methyl acetate:n-propyl alcohol:chloroform:methanol, 0.25% KCl in water:acetic acid (100:100:100:40:36:2). A standard sample of ceramide was phosphorylated under identical conditions and developed in parallel. […] Quantification of ceramide-1-phosphate was carried out by autoradiography and densitometric scanning using Imaging Densitometer (model GS-670; Bio-Rad). Values are expressed either as arbitrary units (absorbance) or as percent change.

O=S(=O)(NCCNC/C=C/c1ccc(Br)cc1)c1cccc2cnccc12 [H-89]
LPS-induced production of IL-1β [1]: stimulated the production of these proinflammatory cytokines in rat primary microglia
LPS-induced production of TNF-α [2]: stimulated the production of these proinflammatory cytokines in rat primary microglia
ratios of C26:0/C22:0 and C24:0/C22:0 / level of VLCFA [3]: blocked the observed effect of forskolin on the level of VLCFA
cytokine-induced expression of iNOS (iNOS): stimulated the cytokine-induced expression of iNOS
Lignoceric acid β-oxidation ([4]; forskolin 4 μM, 1,9 dideoxy forskolin 4 μM, 8-Br-cAMP 50 μM, H-89 1 μM, myristoylated PKI 0.2 μM, Control 565.2 ± 48.3): 405.6 ± 44.1 pmol/h/mg protein

CC[C@H](C)C(=O)O[C@H]1CCC=C2C=C[C@H](C)[C@H](CC[C@@H]3C[C@@H](O)CC(=O)O3)[C@H]21 [Mevastatin]
Lignoceric acid β-oxidation ([4]; Lovastatin 5 μM, Mevastatin 5 μM, NaPA 5 mM, Control 570.2 ± 52.3): 889.6 ± 78.4 pmol/h/mg protein

S=C(S)N1CCCC1 [PDTC, pyrrolidine dithiocarbamate]
LPS-induced NOS activity, L-citrulline formation [5]: inhibited LPS-induced NOS activity
Inhibition (%) ([6]; LPS 0.2 μg/ml + IFN-γ 50 U/ml, 20 mM NAC or 100 μM PDTC 2 h before): 96%
TNF-α ([6]; LPS 0.2 μg/ml + IFN-γ 50 U/ml, 20 mM NAC or 100 μM PDTC 2 h before, 24 h): 1.4 ± 0.3 ng/24 h/mg protein
Inhibition (%) ([6]; LPS 1.0 μg/ml, 20 mM NAC or 100 μM PDTC 2 h before): 95%
TNF-α ([6]; LPS 1.0 μg/ml, 20 mM NAC or 100 μM PDTC 2 h before, 24 h): 0.9 ± 0.1 ng/24 h/mg protein
TNF-α ([6]; antioxidant alone (20 mM NAC or 100 μM PDTC), no stimulus): 0.7 ± 0.2 ng/24 h/mg protein
degradation of sphingomyelin to ceramide / ceramide production [7]: potentially blocked the decrease in sphingomyelin as well as the increase in ceramide; also recorded: also inhibited cytokine-mediated degradation of SM to ceramide
